Key:
[1] = tested on: KRas G12C mutant; assay: Ras GTP Binding Domain Inhibition Assay (Ras Superfamily Assay); details: 20 μM compound; for KRas G12C mutant + SOS: % inh.: with SOS; for KRas G12C mutant: % inh.: without SOS
Summary of the method: (§1)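 Binding of 100 nM fluorescent GTP (Cy3 or Cy5, 45 min, room temperature) was read after washes from plate-captured His-tagged protein. Beforehand, compounds at 20 μM or in dilution series for IC50 sat 3 h on the protein in Tris buffer pH 7.4 or 7.0 with 1% DMSO, Sos GEF optionally added for the last hour.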

[2] = target: T1, Rho-A (Homo sapiens, UniProt P61586); assay: as above; details: read-out: Rho-A: % inh..
T1 construct: made in house
T1 sequence (P61586 whole entry): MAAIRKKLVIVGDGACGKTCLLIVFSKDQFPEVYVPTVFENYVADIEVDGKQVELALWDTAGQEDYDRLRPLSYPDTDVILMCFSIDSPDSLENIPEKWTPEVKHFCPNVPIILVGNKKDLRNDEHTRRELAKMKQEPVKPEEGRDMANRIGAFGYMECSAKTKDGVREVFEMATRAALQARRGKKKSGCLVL
Summary of the method: as §1

[3] = tested on: KRas Q61H mutant; assay: as above; details: 20 μM compound; for KRas Q61H mutant + SOS: % inh.: with SOS; for KRas Q61H mutant: % inh.: without SOS
Summary of the method: as §1

[4] = tested on: PUMA expression; assay: Cell-based Puma expression assay (western blot); set-up: species or system human
Procedure: Biological Example 4: Puma Expression and Caspases Activation Assay
Protocols for Cell-Based Puma Expression and Caspase Activation Assays
Cell lines: All human tumor-derived cancer cell lines were purchased from American Type Culture Collection. Human tumor-derived cancer cell lines Panc-1 (expressing KRas G12D mutant), MiaPaca-2 (expressing KRas G12C mutant), A549 (expressing KRas G12S mutant), and A375 (expressing wild type KRas) were grown in complete DMEM-High Glucose medium and NCI-H1975 (expressing wild type KRas), MM.1R (expressing wild type KRas) and IM.9 (expressing wild type KRas) were grown in RPMI1640 medium. Human tumor-derived cancer cell line BT-549 (expressing wild type KRas) was grown in RPMI1640 medium with 11.8U insulin. All mediums were supplemented with penicillin (100 U/mL), streptomycin (100 μg/mL), and 10% heat-inactivated FBS at 37° C. in a humidified incubator with 5% CO2.
Method: Cells were plated at 300,000 to 800,000 cells/well density in a 6-well plate in the presence of 10% FBS. The next day small molecules to be tested were added to the cells in the final concentration of 3 μM in the presence of 0.3% DMSO for 48 hours incubation at 37° C. For IC50 value determination, serial dilutions of compounds were added to cells under the same conditions. Following 48 hours of incubation cells were lysed with lysis buffer containing 1% Triton X-100, EDTA, and Halt™ Protease & Phosphatase Inhibitor Cocktail (Thermo Scientific). Protein concentration was assessed by BCA protein assay (Thermo Scientific). Increase expression of PUMA and active/cleaved forms of caspase 3, caspase 6 and caspase 9 were detected by western blot.
Western blot protocol: Equal amounts of protein (15-50 μg) were separated by SDS-PAGE and transferred to nitrocellulose membranes (Invitrogen by Thermo Fisher Scientific). The membrane was stained with Ponceau S Stain (Boston BioProducts) to verify uniform protein loading. Membranes were blocked with 10% milk and expression levels of PUMA was assessed by incubating overnight at 4° C. with the antibody PUMA (D30C10) from Cell Signaling Technology (#12450) and active/cleaved forms of caspase 3, caspase 6 and caspase 9 by incubating overnight at 4° C. with the following antibodies: cleaved caspase-3 (Asp175) (5A1E), cleaved caspase-6 (Asp162) and cleaved caspase-9 (Asp330) (D2D4) (all antibodies from Cell Signaling Technology). Then the membranes were incubated with HRP-conjugated secondary antibody (Jackson Immunoresearch, West Grove, PA). Bands were incubated in Amersham ECL Prime Western Blotting Detection Reagent (GE Healthcare) and visualized using the ChemiDoc MP imaging system (Bio-Rad).

Structure (SMILES)	KRas G12C mutant + SOS: % inh. [1]	KRas G12C mutant: % inh. [1]	inhibition at 20 µM [2]	KRas Q61H mutant + SOS: % inh. [3]	KRas Q61H mutant: % inh. [3]	Increased PUMA expression ([4]; A549, after 48 hours)	Increased PUMA expression ([4]; BT-549, after 48 hours)	Increased PUMA expression ([4]; MiaPaca2, after 48 hours)	Increased PUMA expression ([4]; HCC1806, after 48 hours)	Increased PUMA expression ([4]; NCI-H358, after 48 hours)
Cc1c(-c2ccn(C)n2)cn2nc(-c3nccn3C)nc(Cl)c12 [Compound 99, 4-Chloro-5-methyl-2-(1-methyl-1H-imidazol-2-yl)-6-(1-methyl-1H-pyrazol-3-yl)pyrrolo[2,1-f][1,2,4]triazine]	B (B = 26-49% inhibition)	B (B = 26-49% inhibition)	–	–	–	–	–	–	–	–
COc1cc(Nc2nc(-c3nccn3C)nn3cc(-c4ccccn4)c(C)c23)ncn1 [Compound 94, N-(6-Methoxypyrimidin-4-yl)-5-methyl-2-(1-methyl-1H-imidazol-2-yl)-6-(pyridin-2-yl)pyrrolo[2,1-f][1,2,4]triazin-4-amine]	B (B = 26-49% inhibition)	B (B = 26-49% inhibition)	76 to 100%	C (C = 50-75% inhibition)	B (B = 26-49% inhibition)	–	–	–	–	–
COc1ccnc(Nc2nc(-c3nccn3C)nn3cc(-c4ccn(C)n4)c(C)c23)c1 [Compound 102, N-(4-Methoxypyridin-2-yl)-5-methyl-2-(1-methyl-1H-imidazol-2-yl)-6-(1-methyl-1H-pyrazol-3-yl)pyrrolo[2,1-f][1,2,4]triazin-4-amine]	–	–	–	–	–	yes	–	yes	–	–
Cc1c(-c2ccn(C)n2)cn2nc(-c3nccn3C)nc(Nc3cc4n(n3)CCO4)c12 [Compound 124, N-(5-Methyl-2-(1-methyl-1H-imidazol-2-yl)-6-(1-methyl-1H-pyrazol-3-yl)pyrrolo[2,1-f][1,2,4]triazin-4-yl)-2,3-dihydropyrazolo[5,1-b]oxazol-6-amine]	–	–	–	–	–	–	–	yes	yes	yes
COc1ccnc(Nc2nc(-c3nccn3C)nn3cc(-c4ccn(C(F)F)n4)c(C)c23)n1 [Compound 95, 6-(1-(Difluoromethyl)-1H-pyrazol-3-yl)-N-(4-methoxypyrimidin-2-yl)-5-methyl-2-(1-methyl-1H-imidazol-2-yl)pyrrolo[2,1-f][1,2,4]triazin-4-amine]	B (B = 26-49% inhibition)	B (B = 26-49% inhibition)	76 to 100%	C (C = 50-75% inhibition)	C (C = 50-75% inhibition)	–	–	–	–	–

Continued, in another order:

KRas G12C mutant + SOS: % inh. [1]	KRas G12C mutant: % inh. [1]	inhibition at 20 µM [2]	KRas Q61H mutant + SOS: % inh. [3]	KRas Q61H mutant: % inh. [3]	Structure (SMILES)	Increased PUMA expression ([4]; A549, after 48 hours)	Increased PUMA expression ([4]; BT-549, after 48 hours)	Increased PUMA expression ([4]; MiaPaca2, after 48 hours)	Increased PUMA expression ([4]; HCC1806, after 48 hours)	Increased PUMA expression ([4]; NCI-H358, after 48 hours)
0 (0 = 0% inhibition)	B (B = 26-49% inhibition)	0%	0 (0 = 0% inhibition)	A (A = 1-25% inhibition)	CO[C@H]1CC[C@@H](Nc2nc(-c3ccccn3)nn3cc(-c4ccn(C(C)C)n4)c(C)c23)C1 (racemic) [Compound 9, rac 6-(1-Isopropyl-1H-pyrazol-3-yl)-N-((1R,3S)-3-methoxycyclopentyl)-5-methyl-2-(pyridin-2-yl)pyrrolo[2,1-f][1,2,4]triazin-4-amine]	–	–	–	–	–
C (C = 50-75% inhibition)	C (C = 50-75% inhibition)	76 to 100%	C (C = 50-75% inhibition)	C (C = 50-75% inhibition)	COc1cc(Nc2nc(-c3nccn3C)nn3cc(-c4ccn(C(C)C)n4)c(C)c23)ncn1 [Compound 6, 6-(1-Isopropyl-1H-pyrazol-3-yl)-N-(6-methoxypyrimidin-4-yl)-5-methyl-2-(1-methyl-1H-imidazol-2-yl)pyrrolo[2,1-f][1,2,4]triazin-4-amine]	yes	yes	yes	–	–
C (C = 50-75% inhibition)	D (D = 76-100% inhibition)	76 to 100%	D (D = 76-100% inhibition)	C (C = 50-75% inhibition)	Cc1c(-c2ccn(C(C)C)n2)cn2nc(-c3nccn3C)nc(Nc3nccn3C)c12 [Compound 93, 6-(1-Isopropyl-1H-pyrazol-3-yl)-5-methyl-N,2-bis(1-methyl-1H-imidazol-2-yl)pyrrolo[2,1-f][1,2,4]triazin-4-amine]	–	–	–	–	–
A (A = 1-25% inhibition)	0 (0 = 0% inhibition)	0%	0 (0 = 0% inhibition)	0 (0 = 0% inhibition)	Cc1c(-c2ccn(C(C)C)n2)cn2nc(-c3ccccn3)nc(O)c12 [Compound 8, 6-(1-Isopropyl-1H-pyrazol-3-yl)-5-methyl-2-(pyridin-2-yl)pyrrolo[2,1-f][1,2,4]triazin-4-ol]	–	–	–	–	–
